The results in this text go back to patent US11596632B2, “JAK1 pathway inhibitors for the treatment of gastrointestinal disease” (Incyte Corporation, priority 2018, dated 2023).

In general, IC50 refers to the point on the concentration scale where inhibition reaches its midpoint. The term Cmax denotes the highest concentration seen after dosing. Usually Tmax stands for the time from dosing to the highest level.

Data set [1] relates to IL-6 stimulated phosphorylated STAT3 in whole blood. As to the kind of experiment: IL-6 stimulated STAT3 phosphorylation in whole blood. The format is cell-based. As to conditions: Homo sapiens, IL-6 stimulated pSTAT3, read-out: ex vivo whole blood IC50. As for the experimental part: To assess the inhibitory activity of Compound 1 in serum-rich media, e.g., plasma or whole blood, the assay is conducted using whole blood; briefly, the whole blood sample is stimulated with IL-6 and levels of phosphorylated STAT3 are determined. This assay can be conducted either in vitro (human blood samples are spiked with Compound 1) or ex vivo (whole blood samples collected from human subjects dosed with Compound 1).

The nature of data set [2]: Fecal concentration and excretion after oral sustained release dose. The format is in vivo, human. How it is done:
The method used for analyzing Compound 1 in human feces is a qualified method. The human fecal samples are collected in 1:1 homogenate at the clinical site [1 part of water (mL): 1 part of faces(g)]. Prior to sample analysis, additional water is added to the sample homogenate to achieve the final ratio of feces to water at 1:19 as calibration standard and QC samples. The final homogenates are processed and analyzed with calibration standards and QC samples. For human homogenate analysis, briefly, 100 μL of the feces homogenate (blanks, QC and study samples) is placed in a test tube. After an aliquot of 20 μL of internal standard is added and mixed, an aliquot of 200 μL of 0.1 M NaHCO3 is added and vortexed. Then 2 mL of MtBE is added and the samples are vortexed. After centrifugation, MtBE layer is transferred to a clean test tube. The samples were then dried under nitrogen at approximately 40° C. An aliquot of 1 mL of reconstitution solution (acetonitrile:water, 50:50, v/v) is then added to each sample and vortexed. Then 10 μL of the sample was diluted with 3 mL reconstitution solution in a clean test tube. The sample is transferred to an autosampler vial and 10 μL is injected into an LC-MS/MS for analysis. The LC-MS/MS analysis is carried out with an AB Sciex API 4000 or API 4000 QTrap mass spectrometer coupled with an HPLC pump and an autosampler. The chromatographic separation is achieved on a Agilent Eclipse Plus C8 50×4.6 mm, 5 μm HPLC column, with gradient elution. The mass spectrometer is operated in positive ESI mode. MRM transition is m/z 554.3→186.2 for Compound 1 and m/z 558.4→190.2 for the internal standard. Peak-area integrations are performed using the Analyst software and concentrations are calculated in Watson LIMS. Concentrations of human feces homogenates are calculated using 8 concentration levels ranging from 1 μg/g to 300 μg/g (1.8 μM to 542 μM) with weighted linear regression, according to the following formula: y=ax+b(weighting factor=1/x^2)
where x=Compound 1 concentration in μg/g in human feces homogenates, y=Peak-area ratio, a=Slope, and b=Intercept.
(§1) Methods: Compound 1 concentrations in plasma and feces (colonic surrogate) were determined following a single sustained release 25 mg oral dose (see, e.g., Example B, 25 mg SR composition). Compound 1 concentrations in plasma following a single 100 mg dose were also determined in a separate study (see, e.g., Example C for measuring concentrations of Compound 1 in plasma). Ex vivo study: Colon tissue samples from healthy and UC subjects (2/group) were mounted on a vertical Ussing diffusion chamber. [^14C]Compound 1 was applied to the apical side of the chamber at 100 and 1000 nM and incubated for 1 h. Samples were collected from the donor and receiver sides for determination of Compound 1 concentration. The colonic tissue was snap frozen for quantitative autoradiography.

Data set [3] in a line: Plasma pharmacokinetics after single oral sustained release dose. The format is in vivo, human. As for the experimental part: The method used for analyzing Compound 1 in human plasma has been validated. Briefly, 50 μL of human plasma sample is placed in a 96-well plate. After an aliquot of 50 μL of internal standard (dissolved in 50:50 acetonitrile:water) is added, an aliquot of 100 μL of 0.1 M NaHCO3 is added. Then 800 μL of methyl-t-butyl ether (MtBE) is added and the samples are covered and vortexed. After centrifugation, 700 μL of MtBE layer is transferred to a clean 96-well plate. The samples are then dried under nitrogen at approximately 50° C. An aliquot of 250 μL of reconstitution solution (acetonitrile:water, 50:50, v/v) is then added to each sample. The plate is placed in the autosampler tray and injected into an LC-MS/MS for analysis. The LC-MS/MS analysis is carried out with an AB Sciex 4000 or a Sciex 6500 QTRAP mass spectrometer coupled with an HPLC pump and an autosampler. The chromatographic separation is achieved on a Waters T3 (50 mm×2.1 mm) HPLC column, with isocratic elution. The mass spectrometer is operated in positive ESI mode. The multiple reaction monitoring (MRM) transition is m/z 554.1→186.0 for Compound 1 and m/z 558.1→190.0 for the internal standard. Peak-area integrations are performed using the Analyst software and concentrations are calculated in Watson LIMS. Concentrations are calculated using 10 concentration levels ranging from 5 nM to 5000 nM with weighted linear regression, according to the following formula: y=ax+b(weighting factor=1/x^2) • where: x=Compound 1 concentration in nM; y=Peak-area ratio; a=Slope; and b=Intercept.
The lower limit of quantitation is 5 nM and the calibration curve ranges from 5 nM to 5000 nM for Compound 1 in human plasma.
as §1
Standard noncompartmental pharmacokinetic methods were used to analyze Compound 1 plasma concentrations. The Cmax (maximum plasma concentration) and Tmax (time at which the maximum plasma concentration occurs) were taken directly from the observed plasma concentration data. The terminal-phase disposition rate constant (λZ) was estimated using a log-linear regression of the concentration data in the terminal disposition phase, and t1/2 was estimated as ln(2)/λZ. AUCall is defined as the area under the plasma concentration-time curve from time 0 to the last observation calculated using the linear trapezoidal rule for increasing concentrations and logarithmic trapezoidal rule for decreasing concentrations. AUC0-inf was calculated as AUC0-t+Ct/λZ, where by AUC0-t is defined as the area under the plasma concentration-time curve from time 0 to the last measureable concentration (also calculated using the linear-up/log-down trapezoidal rule) and Ct is the last measurable concentration. Cl/F is the apparent clearance and is calculated as Dose/AUC0-inf. Vz/F is the apparent volume of distribution based on the terminal phase calculated as Dose/(λZ*AUC0-inf).

The mark [4] stands for this setting: single 25 mg SR oral dose, N=12.

Read-outs that look alike come from different tables or passages of the source.

On to `N#CCC1(n2cc(-c3ncnc4[nH]ccc34)cn2)CN(C2CCN(C(=O)c3ccnc(C(F)(F)F)c3F)CC2)C1` [Compound 1, {1-{1-[3-Fluoro-2-(trifluoromethyl)isonicotinoyl]piperidin-4-yl}-3-[4-(7H-pyrrolo[2,3-d]pyrimidin-4-yl)-1H-pyrazol-1-yl]azetidin-3-yl}acetonitrile], for which the concentration for half-maximal inhibition (IC50) in data set [1] came to 141 nM. In addition, the “administered dose excreted intact as parent compound in the feces” value in data set [2] (humans, oral) is about 30%. Besides, the “Maximal fecal concentration, geometric mean” value in data set [2] (single 25 mg SR dose, feces 0-24 hours) turned out to be 85.5 nM. For the same compound, in data set [2] (single 25 mg SR dose, feces 0-24 hours, SD 41.4 nM), the “Maximal fecal concentration, Mean” value is given as 93.4 nM. Further, the “patients with maximum fecal concentrations exceeding the in vitro IC50 for JAK1 inhibition (58 nM)” value in data set [2] (single 25 mg dose) is reported as “eight of twelve”. For the same compound, the “dose eliminated as unchanged Compound 1 in the feces” value in data set [2] (sustained release formulation) was 27.1%. The Cmax was found to be 84.4 nM in data set [3] (human, plasma, 100 mg, plasma, single 100 mg dose, separate study, read-out: Cmax, mean (SD)); 17.2 nM in data set [3] (human, plasma, po, 25 mg, plasma, single 25 mg SR oral dose, N=12, read-out: Cmax, Geometric Mean); 18.9 nM in data set [3] (human, plasma, po, 25 mg, plasma, single 25 mg SR oral dose, N=12, read-out: Cmax, Mean). For the same compound, the AUC(0-inf) in data set [3] (human, plasma, po, 25 mg, plasma, single 25 mg SR oral dose, N=12, read-out: AUC0-inf, Geometric Mean) was found to be 0.111 µM·h; in data set [3] (human, plasma, po, 25 mg, plasma, single 25 mg SR oral dose, N=12, read-out: AUC0-inf, Mean), 0.117 µM·h. For the same compound, the AUC turned out to be 0.105 µM·h in data set [3] (human, plasma, po, 25 mg, plasma, single 25 mg SR oral dose, N=12, read-out: AUCall, Geometric Mean) and 0.11 µM·h in data set [3] (human, plasma, po, 25 mg, plasma, single 25 mg SR oral dose, N=12, read-out: AUCall, Mean). Besides, the half-life is 9.04 h in data set [3] (human, plasma, po, 25 mg, single 25 mg SR oral dose, N=12, read-out: Half-life or t1/2, Geometric Mean (converted)) and 12.3 h in data set [3] (human, plasma, po, 25 mg, single 25 mg SR oral dose, N=12, read-out: Half-life or t1/2, Mean (converted)). Besides, the Vd/F in data set [3] (human, plasma, po, 25 mg, single 25 mg SR oral dose, N=12, read-out: Vz/F, Geometric Mean) was determined as 5290 L; in data set [3] (human, plasma, po, 25 mg, single 25 mg SR oral dose, N=12, read-out: Vz/F, Mean) it was 7360 L. For the same compound, the Tmax in data set [3] (human, plasma, single 25 mg SR oral dose, N=12 (min 1, max 4), read-out: Tmax, median) was determined as 2 h. The “dose proportionality of PK” value in data set [3] (humans) is given as “supralinear PK with regard to dose”. The “oral bioavailability in humans” value in data set [3] (in vivo, po) is reported as “moderate”. The “Cl/F, Geometric Mean” value in data set [3] (setting [4]) worked out at 405 L/h. For the same compound, in data set [3] (setting [4]), the “Cl/F, Mean” value stood at 424 L/h.
